Laboratory results as given in article PMC8635029 (Frontiers in Pharmacology, 2021).

What was measured:
[1] = In vivo brain/plasma distribution in rats; settings: rat, iv, SD rats, single 0.3 mg/kg i.v., read-out: brain/plasma concentration ratio
Experimental: SD rats (half male and half female) were intravenously given a single dose of 0.3 mg/kg HSK21542. The samples were collected at 0.083, 0.5, 1.5 and 4 h after dosing. The rats were anesthetized with isoflurane and then sacrificed by taking blood from the abdominal aorta. The whole brains were rapidly removed from the crania. The plasma (∼100 μL) was separated from the blood by centrifugating at 2000 ×g for 10 min at 4°C. The brains were rinsed with ice-cold normal saline, blotted dry, weighted and placed into a plastic tube. For 1.0 g of brain sample, 4 ml of acetonitrile-ultrapure water solution (1:4, v/v) was added to the tube. The brain samples were then homogenized for 120 s at 50 Hz and ultrasound was performed for 5 min. The plasma and the brain samples were analyzed using a LC-MS/MS assay as detailed in supplementary materials.
The plasma or brain homogenate was ice thawed. […] The resulting solution was then analyzed to determine the concentrations of HSK21542 on a LC-MS/MS system, which consisted of a DGU-20A5R degasser, a LC-30AD pump, a SIL-30AC autosampler, a CTO-20A column oven (Shimadzu, Japan) and an AB Sciex Triple Quad 5500 mass spectrometer (Sciex, Canada). […] Quantification was conducted in positive ion mode. The MRM transition of m/z 704.4→295.2 was used to quantify HSK21542.

C57BL/6J mice = test: Hot-plate test; format: in vivo; settings: hot-plate test ED50 / writhing test ED50
Experimental: The hot-plate test was performed according to previous reports ([DeWire et al., 2013]; [Hill et al., 2018a]; [Wang et al., 2018]). Female C57BL/6J mice were individually placed on a hot plate at 56°C and the latency to licking or jumping was then recorded. A cut-off time of 30 s was imposed in order to prevent tissue damage. Before drug administration, the latency of each mouse was measured and defined as the pre-drug value. The animals with a pre-drug value of greater than 20 s were excluded.

In the case of `CC(=O)N1CC2(CCN(C(=O)[C@@H](CCCCN)NC(=O)[C@@H](CC(C)C)NC(=O)[C@@H](Cc3ccccc3)NC(=O)[C@H](N)Cc3ccccc3)CC2)C1` [HSK21542, 7-(D-phenylalanyl-D-phenylalanyl-D-leucyl-D-lysyl)-2-acetyl-2,7-diazaspiro (3.5)nonane], the Kp [1] is reported as 0.001 and the Therapeutic index (C57BL/6J mice) is reported as 116.6.
